Where a SMILES comes first, the peptide text is derived from it.
How the values were obtained:
HLA-B*40:01 = HLA-B*40:01 (Homo sapiens, UniProt P01889, A65T/A93T/A95T/D138N/D98Y/E176V/E69K/N87E/Q56L/Q94N/R180L/S121R/S35A/S48T/T167S/V36M/W171L/Y33H/Y91S); test: biochemical; assay type: binding
HLA-B*44:02 = HLA-B*44:02 (Homo sapiens, UniProt P01889, A223V/A65T/A93T/A95T/D201E/D98Y/E176V/E187L/E204Q/E69K/G107R/H137Y/K202T/L105A/L119I/N104T/N87E/Q56L/Q94N/R106L/R155S/R180D/S101N/S121R/S35A/S48T/T118I/V36M/W191S/Y140D/Y91S); test: biochemical; assay type: binding
HLA-A*02:01 = HLA-A*02:01 (Homo sapiens, UniProt P04439, D140Y/D185E/D98H/E176V/E277Q/G131W/G231S/I119V/I121R/I166T/I218V/L300P/L318F/N151K/N90K/P208A/P217A/Q86G/Q94H/R138H/R169H/T345S); test: biochemical; assay type: binding
HLA-A*02:03 = HLA-A*02:03 (Homo sapiens, UniProt P04439, A173T/D140Y/D185E/D98H/E277Q/G131W/G231S/I119V/I121R/I166T/I218V/L180W/L300P/L318F/N151K/N90K/P208A/P217A/Q86G/Q94H/R138H/R169H/T345S); test: biochemical; assay type: binding
HLA-A*02:06 = HLA-A*02:06 (Homo sapiens, UniProt P04439, D140Y/D185E/D98H/E176V/E277Q/F33Y/G131W/G231S/I119V/I121R/I166T/I218V/L300P/L318F/N151K/N90K/P208A/P217A/Q86G/Q94H/R138H/R169H/T345S); test: biochemical; assay type: binding
HLA-B*15:01 = HLA-B*15:01 (Homo sapiens, UniProt P01889, A329T/A93T/A95T/C349S/D201E/D98Y/E187L/E204Q/E69M/E70A/K202T/N87E/Q94N/R155S/R180W/S121R/S35A/S48A/V306I/V36M/Y140S/Y91S); test: biochemical; assay type: binding
HLA-A*23:01 = HLA-A*23:01 (Homo sapiens, UniProt P04439, D101N/D140Y/D185E/E176V/E190D/F33S/G103R/G107R/H175R/I119L/I121M/I306V/K168Q/K335N/L105A/L300P/N151K/N90K/P307H/Q86E/Q94H/R106L/R138H/R89G/T104I/T345S/V100E/W191G/Y123F); test: biochemical; assay type: binding
HLA-A*68:02 = HLA-A*68:02 (Homo sapiens, UniProt P04439, A269V/D140Y/D185E/E176V/E277Q/E87N/F33Y/G231S/I121R/I166T/I218V/L180W/L300P/L318F/N151K/P208A/P217A/Q86R/R138H/R169H/S129P/T345S/V36M); test: biochemical; assay type: binding
HLA-A*32:01 = HLA-A*32:01 (Homo sapiens, UniProt P04439, A270S/D101S/D185E/E176V/E277Q/F133L/G103R/G107R/G231S/H175R/I121M/I218V/I322F/K168Q/L105A/L300P/L318F/M331R/P208A/P217A/Q94H/R106L/R138Q/S129P/T104I/T323A/T345S/V100E/V321M/V358M); test: biochemical; assay type: binding
HLA-A*30:01 = HLA-A*30:01 (Homo sapiens, UniProt P04439, D140H/D185E/E176W/F33S/G80R/H175R/K168Q/R138E/R41S); test: biochemical; assay type: binding
HLA-B*27:05 = HLA-B*27:05 (Homo sapiens, UniProt P01889, D138H/D201E/E176V/E204Q/G107R/H137Y/K202T/N104T/N87E/Q56L/Q94K/R106L/R155S/R180L/S101D/S121N/S48T/Y140D/Y33H/Y91C); test: biochemical; assay type: binding
HLA-A*03:01 = HLA-A*03:01 (Homo sapiens, UniProt P04439); test: biochemical; assay type: binding
HLA-B*07:02 = HLA-B*07:02 (Homo sapiens, UniProt P01889); test: biochemical; assay type: binding
HLA-B*08:01 = HLA-B*08:01 (Homo sapiens, UniProt P01889, A93T/A95T/D138N/E176V/E187T/K202T/Q94N/R180D/S35A/V36M/Y33D/Y91F); test: biochemical; assay type: binding
HLA-A*24:02 = HLA-A*24:02 (Homo sapiens, UniProt P04439, D101N/D140Y/D185E/E176V/E190D/F33S/G103R/G107R/I119L/I121M/I306V/K335N/L105A/L180Q/L300P/N151K/N90K/Q86E/Q94H/R106L/R138H/R89G/T104I/T345S/V100E/W191G/Y123F); test: biochemical; assay type: binding
HLA-A*30:02 = HLA-A*30:02 (Homo sapiens, UniProt P04439, D101N/D140H/D185E/E176R/F33S/G80R/H175R/K168Q/Q94H/R138E/R41S/V100E); test: biochemical; assay type: binding
[1] = tested on: Mafa-A63:02 MHC class I molecules; assay type: binding, Macaca fascicularis

## CC(C)[C@H](NC(=O)[C@H](CCCNC(=N)N)NC(=O)[C@H](C)NC(=O)[C@H](Cc1ccccc1)NC(=O)[C@@H]1CCCN1C(=O)[C@H](C)NC(=O)[C@H](Cc1ccc(O)cc1)NC(=O)[C@H](CCC(=O)O)NC(=O)CN)C(=O)O (H-GEYAPFARV-OH)
HLA-B*40:01
  IC50: 107 nM
HLA-B*44:02
  IC50: 214 nM

## CC[C@H](C)[C@H](NC(=O)[C@H](C)NC(=O)[C@H](CO)NC(=O)[C@H](CC(C)C)NC(=O)[C@H](CCC(N)=O)NC(=O)[C@@H]1CCCN1C(=O)[C@H](Cc1ccc(O)cc1)NC(=O)[C@H](CC(C)C)NC(=O)CN)C(=O)O (H-GLYPQLSAI-OH)
HLA-A*02:01
  IC50: 5.9 nM
HLA-A*02:03
  IC50: 1.4 nM
HLA-A*02:06
  IC50: 6.9 nM

## CC(C)C[C@H](NC(=O)[C@H](CCC(N)=O)NC(=O)[C@@H]1CCCN1C(=O)[C@H](Cc1ccc(O)cc1)NC(=O)[C@H](CC(C)C)NC(=O)CNC(=O)[C@H](Cc1c[nH]cn1)NC(=O)[C@H](CCC(=O)O)NC(=O)[C@@H](N)CC(C)C)C(=O)O (H-LEHGLYPQL-OH)
HLA-B*40:01
  IC50: 14 nM
HLA-B*44:02
  IC50: 3.4 nM

## CC[C@H](C)[C@H](NC(=O)[C@@H](N)CC(C)C)C(=O)N[C@H](C(=O)N[C@@H](CCCCN)C(=O)N[C@H](C(=O)N[C@H](C(=O)N[C@@H](CC(C)C)C(=O)N[C@@H](CCC(=O)O)C(=O)N[C@@H](Cc1ccccc1)C(=O)O)C(C)C)[C@@H](C)O)C(C)C (H-LIVKTVLEF-OH)
HLA-B*15:01
  IC50: 0.8 nM
HLA-A*23:01
  IC50: 109 nM

## CC[C@H](C)[C@H](NC(=O)[C@H](C)NC(=O)[C@H](CO)NC(=O)[C@H](CC(C)C)NC(=O)[C@@H](N)CCC(N)=O)C(=O)N[C@@H](C)C(=O)N[C@@H](CC(C)C)C(=O)NCC(=O)N[C@H](C(=O)O)C(C)C (H-QLSAIALGV-OH)
HLA-A*68:02
  IC50: 11 nM
HLA-A*02:01
  IC50: 3.9 nM
HLA-A*02:03
  IC50: 4.4 nM
HLA-A*02:06
  IC50: 12 nM
HLA-A*32:01
  IC50: 81 nM

## CC[C@H](C)[C@H](NC(=O)[C@H](CC(C)C)NC(=O)[C@H](CC(C)C)NC(=O)CNC(=O)[C@H](CO)NC(=O)[C@H](Cc1ccccc1)NC(=O)[C@H](CCCNC(=N)N)NC(=O)[C@@H](NC(=O)[C@@H](N)CCC(N)=O)[C@@H](C)O)C(=O)N[C@H](C(=O)O)C(C)C (H-QTRFSGLLIV-OH)
HLA-B*15:01
  IC50: 4680 nM
HLA-A*30:01
  IC50: 421 nM
HLA-B*27:05
  IC50: 533 nM

## CC[C@H](C)[C@H](NC(=O)[C@H](Cc1ccccc1)NC(=O)[C@H](CCC(=O)O)NC(=O)[C@H](CC(C)C)NC(=O)[C@@H](NC(=O)[C@@H](N)[C@@H](C)O)C(C)C)C(=O)N[C@@H](CC(C)C)C(=O)N[C@@H](CCC(N)=O)C(=O)N[C@@H](CCCCN)C(=O)O (H-TVLEFILQK-OH)
HLA-A*03:01
  IC50: 19 nM
HLA-A*30:01
  IC50: 365 nM

## CC(C)C[C@H](NC(=O)[C@H](CC(N)=O)NC(=O)[C@H](CC(C)C)NC(=O)[C@@H](NC(=O)[C@H](CCCNC(=N)N)NC(=O)[C@H](C)NC(=O)[C@H](Cc1ccccc1)NC(=O)[C@@H]1CCCN1C(=O)[C@H](C)N)C(C)C)C(=O)O [AL9] (H-APFARVLNL-OH)
HLA-B*07:02
  IC50: 0.21 nM
HLA-B*08:01
  IC50: 67 nM

## CC[C@H](C)[C@H](NC(=O)[C@H](CC(C)C)NC(=O)[C@@H]1CCCN1C(=O)[C@H](CO)NC(=O)[C@H](Cc1ccc(O)cc1)NC(=O)[C@@H](N)Cc1c[nH]cn1)C(=O)N[C@@H](CC(C)C)C(=O)N[C@@H](C)C(=O)N[C@@H](CC(C)C)C(=O)O [HL9] (H-HYSPLILAL-OH)
HLA-A*24:02
  IC50: 64 nM

## CC(C)[C@H](NC(=O)[C@H](CCC(=O)O)NC(=O)[C@H](CC(N)=O)NC(=O)[C@H](CCCCN)NC(=O)[C@@H](NC(=O)[C@@H](N)CCCCN)C(C)C)C(=O)N[C@@H](C)C(=O)N[C@@H](CO)C(=O)N[C@@H](Cc1ccccc1)C(=O)O [KF9] (H-KVKNEVASF-OH)
HLA-B*15:01
  IC50: 5.6 nM
HLA-A*32:01
  IC50: 2.9 nM
HLA-A*30:02
  IC50: 158 nM

## CC[C@H](C)[C@H](NC(=O)[C@H](C)NC(=O)[C@H](CO)NC(=O)[C@H](CC(C)C)NC(=O)[C@H](CCC(N)=O)NC(=O)[C@@H]1CCCN1C(=O)[C@H](Cc1ccc(O)cc1)NC(=O)[C@@H](N)CC(C)C)C(=O)N[C@@H](C)C(=O)N[C@@H](CC(C)C)C(=O)O [LYPQLSAIAL, reference compound] (H-LYPQLSAIAL-OH)
HLA-B*07:02
  IC50: 134 nM

## CC(C)C[C@H](NC(=O)[C@H](Cc1ccccc1)NC(=O)[C@H](CC(C)C)NC(=O)[C@H](CO)NC(=O)[C@H](CS)NC(=O)[C@H](Cc1ccccc1)NC(=O)[C@H](CO)NC(=O)[C@H](CC(C)C)NC(=O)[C@@H](N)Cc1ccccc1)C(=O)O [reference compound] (H-FLSFCSLFL-OH)
HLA-A*02:01
  IC50: 1.8 nM
HLA-A*02:03
  IC50: 29 nM
HLA-A*02:06
  IC50: 121 nM

## CC(C)C[C@H](NC(=O)[C@H](CO)NC(=O)[C@H](CS)NC(=O)[C@H](Cc1ccccc1)NC(=O)[C@H](CO)NC(=O)[C@H](CC(C)C)NC(=O)[C@H](Cc1ccccc1)NC(=O)[C@@H](N)CC(C)C)C(=O)N[C@@H](Cc1ccccc1)C(=O)O [reference compound] (H-LFLSFCSLF-OH)
HLA-A*24:02
  IC50: 633 nM
HLA-A*23:01
  IC50: 33 nM

## CC[C@H](C)[C@H](NC(=O)[C@H](CC(C)C)NC(=O)[C@@H](N)CC(C)C)C(=O)N[C@H](C(=O)N[C@@H](CCCCN)C(=O)N[C@H](C(=O)N[C@H](C(=O)N[C@@H](CC(C)C)C(=O)O)C(C)C)[C@@H](C)O)C(C)C [reference compound] (H-LLIVKTVL-OH)
HLA-B*08:01
  IC50: 6.1 nM

## GPRKPIKCW
[1]
  score on the t-SNE T2 axis (Mafa-A063 binding affinity and stability): scored high

## HPAQTSQW
[1]
  score on the t-SNE T2 axis (Mafa-A063 binding affinity and stability): scored high

## RPKVPLRTM
[1]
  score on the t-SNE T2 axis (Mafa-A063 binding affinity and stability): scored high

— paper PMC10976095 (Vaccines, 2024)
